The source of these data is PubChem BioAssay AID2060604 (Molecular Pharmacology Branch, DTP, NCI, 2025).

As a reminder, the viability, T/C is the ratio of treated to control. Broadly, the IC50 is the concentration needed to halve the response being measured.

Structures are written as SMILES. Where “and” joins values, the source holds several entries; their conditions need not be identical. Equal entries are not always repeated.

This assay deals with 379773-124-R-J2-PDC complex spheroids, viability % test/control. As to the kind of experiment: Anticancer human tumor 379773-124-R-J2-PDC patient-derived endometrial carcinoma cell line growth inhibition [CLK]. The settings on record: for viability, T/C: stronger effect = lower value. An excerpt: A high-throughput screen of multi-cell type tumor spheroids was designed to identify active combinations of […] and targeted small molecules. Complex spheroids include a stromal component modeled by human endothelial cells (HUVEC) and fibroblasts modeled by human mesenchymal stem cells (MSCs). The concentration ranges selected for each drug and investigational agent were based upon clinically achievable concentrations if the clinical Cmax of the agent was known.
Compounds. The drugs and investigational agents: cirtuvivint (SM08502; NSC835563), CC-671 (NSC850746), vemurafenib (NSC761431), tapotoclax (NSC804041), sotorasib (NSC818433), adagrasib (NSC831453), MRTX-1133 (NSC836407), BAY2416964 (NSC825713), copanlisib (NSC816437), inavolisib (NSC800729), abemaciclib (NSC768073), osimertinib (NSC779217), entinostat (NSC756642), eltanexor (KPT-8602, NSC794443), venetoclax (NSC766270), ceralasertib (NSC777638), bortezomib (NSC756655), olaparib (NSC753686), talazoparib (NSC767125), alisertib (NSC759677), peposertib (NSC802822), gemcitabine (NSC613327), 5-fluorouracil (NSC19893), SN-38 (NSC673596), oxaliplatin (NSC266046), paclitaxel (NSC125973), and doxorubicin (NSC123127), were obtained from the National Cancer Institute (NCI) Developmental Therapeutics Program Chemical Repository. The FDA-approved anticancer drug set is available from the Developmental Therapeutics Program at https://dtp.cancer.gov/organization/dscb/obtaining/available plates.htm. […] The stock solutions were prepared in dimethyl sulfoxide (DMSO, Sigma-Aldrich, St. Louis, MO, cat. D2650), except for the platinum complexes which were prepared in saline (Quality Biological, Gaithersburg, MD, cat. 114-055-101), at 800-fold the tested concentration and stored at -70 degrees C prior to their use. All drugs and investigational agents were tested over a range starting from a high concentration at or near the clinical Cmax and decreasing in half-log increments. If the clinical Cmax for an agent had not been determined, the highest concentration tested was 10 microM.
Cell Culture. All cells were maintained in an incubator at 37 degrees C and 5% CO2 with 95% humidity. The PDC lines were cultured according to standard operating procedures established by the NCI PDMR. Briefly, all PDCs were thawed and cultured in Matrigel-coated flasks prepared with a working solution of 1X Ham's F-12 nutrient mix, without supplementation (Invitrogen, Waltham, MA, cat. 11765054), 100 U/mL penicillin-streptomycin (Invitrogen, cat. 15140122), and 2.5% Matrigel (Corning Inc., Corning, NY, cat. 354248) for the first three passages. The 947758-054-R-J2-PDC line was cultured in 6B/Colon 1A media, which includes advanced DMEM/F-12 (Thermo Fisher Scientific, cat. 12634028), 10 mM HEPES (Thermo Fisher Scientific, cat. 15630080), 1X GlutaMAX supplement (Thermo Fisher Scientific, cat. 35050061), 0.1 mg/mL primocin (InvivoGen, cat. ant-pm-2), 10% defined fetal bovine serum, heat inactivated (HyClone Laboratories Inc., cat. SH30070.03HI), 1.25 mM N-Acetyl-L-cysteine (Sigma-Aldrich, cat. A9165), 10 mM nicotinamide (Sigma-Aldrich, cat. N0636), 1X B-27 supplement (Thermo Fisher Scientific, cat. 17504044), 1X N-2 supplement (Thermo Fisher Scientific, cat. 17502048), and 10 microM Y-27632 dihydrochloride (Tocris Bioscience, cat. 1254). The 876862-298-R-J1-PDC was cultured in 6E media, which includes all 6B/Colon 1A media components plus 50% L-WRN conditioned media (ATCC, cat. CRL-3276), 50 ng/mL recombinant human EGF recombinant protein (hEGF; Thermo Fisher Scientific, cat. PHG0311), 10 ng/mL recombinant human fibroblast growth factor 10 (hGFG-10; PeproTech, cat. 100-26), 1 ng/mL recombinant human fibroblast growth factor 2 (hFGF-2; PeproTech, cat. 100-18B), and 1 µM prostaglandin E2 (PGE2; Tocris, cat. 2296). The 227483-062-R1-J1-PDC line was cultured in Panc media, containing all 6E components except hFGF-2, with the addition of 500 nM SB-431542 (Selleckchem, cat. S1067) and 10 nM gastrin (Tocris, cat. 3006). […]
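Further: compound exposure lasted seven days before the viability readout.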
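Wherever viability, T/C is given: 100% = DMSO vehicle control wells.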

Take `CCN1CCN(Cc2ccc(Nc3ncc(F)c(-c4cc(F)c5nc(C)n(C(C)C)c5c4)n3)nc2)CC1`: the viability, T/C (compound 0.00316 µM) was 87% and 87.5%; the viability, T/C (compound 0.01 µM) was 81.6% and 73%; the viability, T/C (compound 0.0316 µM) was 83.8% and 93.2%; the viability, T/C (compound 0.1 µM) is 110% and 88.4%; the viability, T/C (compound 0.316 µM) was 89.1% and 101%; the viability, T/C (compound 1 µM) was 81% and 78%. Also, where the note is “curve of compound”, the IC50 was above 1000 nM.

In the case of `CCc1c2c(nc3ccc(O)cc13)-c1cc3c(c(=O)n1C2)COC(=O)[C@]3(O)CC`, the viability, T/C runs as follows: (compound 0.00316 µM) 24.2% and 20.4%; (compound 0.01 µM) 8.01% and 6.62%; (compound 0.0316 µM) 5.03% and 4.19%; (compound 0.1 µM) 2.77% and 1.93%; (compound 0.316 µM) 0.94% and 0.86%; (compound 1 µM) 0.57% and 0.46%. Where the note is “curve of compound”, the IC50 was below 3.16 nM.

Regarding `CN1CCN(c2cc(C(=O)Nc3cc4cc(-c5cnn(C)c5)ccc4cn3)ccn2)CC1`, the viability, T/C was 95.6% [middle of 12 runs] (compound 0.0316 µM); 28.3% [middle of 12 runs] (compound 0.316 µM); 0.33% [middle of 10 runs] (compound 1 µM); 0.29% [middle of 9 runs] (compound 3.16 µM); 0.22% [middle of 9 runs] (compound 10 µM). Also, the IC50 (compound alone, run of 09/18/2023) was 199 nM [middle of 12 runs].

For `CNC(=O)c1ccc(Nc2nc(OC3CCCC3)c3c(-c4ccc5nc(C)oc5c4)c[nH]c3n2)c(OC)c1`, the viability, T/C runs as follows: (compound 0.0316 µM) 82.9% [middle of 12 runs]; (compound 0.1 µM) 39.7% [middle of 12 runs]; (compound 0.316 µM) 39% [middle of 12 runs]; (compound 1 µM) 32.1% [middle of 12 runs]; (compound 3.16 µM) 35.5% [middle of 12 runs]; (compound 10 µM) 33.9% [middle of 12 runs]. In addition, the IC50 (compound alone, run of 09/19/2023) is 75.8 nM [middle of 12 runs].

Take `COC1C=CCC(C)C(C)S(=O)(=O)NC(=O)c2ccc3c(c2)N(CC2CCC21)CC1(CCCc2cc(Cl)ccc21)CO3` (stereo not given): the viability, T/C reads like this: (compound 0.0316 µM) 96.5% and 98.1%; (compound 0.1 µM) 91.1% and 82%; (compound 0.316 µM) 98.4% and 83.7%; (compound 1 µM) 98.3% and 78.7%; (compound 3.16 µM) 84.1% and 88.6%; (compound 10 µM) 5.48% and 2.76%. Also, the half-inhibitory concentration (IC50) (curve of compound) was determined as 5210 nM.

On to `COc1c(OCCCN2CCOCC2)ccc2c3n(c(=NC(=O)c4cnc(N)nc4)nc12)CCN3`, for which the viability, T/C is 85.3% and 98.5% (compound 0.00316 µM); 91.9% and 72.6% (compound 0.01 µM); 73.5% and 69.3% (compound 0.0316 µM); 43.4% and 40.3% (compound 0.1 µM); 15.3% and 12.2% (compound 0.316 µM); 4.52% and 3.3% (compound 1 µM). The IC50 (curve of compound) was 78.7 nM and 58.8 nM.

Regarding `Cn1ncnc1[C@H]1c2n[nH]c(=O)c3cc(F)cc(c23)N[C@@H]1c1ccc(F)cc1`, the viability, T/C (compound 0.000316 µM) is 97.3% and 82.2%; the viability, T/C (compound 0.001 µM) was 100% and 79.8%; the viability, T/C (compound 0.00316 µM) was 86.3% and 79.5%; the viability, T/C (compound 0.01 µM) was 86.8% and 79.1%; the viability, T/C (compound 0.0316 µM) was 72.3% and 49%; the viability, T/C (compound 0.1 µM) was 38.9% and 26.1%. The IC50 (curve of compound) is 67.6 nM and 30.5 nM.

`NC(=O)C(=Cn1cnc(-c2cc(C(F)(F)F)cc(C(F)(F)F)c2)n1)c1cncnc1`: the viability, T/C (compound 0.00949 µM) was 83.8% and 85.3%; the viability, T/C (compound 0.03 µM) was 74.8% and 59.7%; the viability, T/C (compound 0.0949 µM) is 41.1% and 33.7%; the viability, T/C (compound 0.3 µM) was 19.5% and 14.4%; the viability, T/C (compound 0.949 µM) was 13.9% and 7.66%; the viability, T/C (compound 3 µM) was 4.42% and 2.99%. The concentration for half-maximal inhibition (IC50) (curve of compound) is 72.6 nM and 45.9 nM.
